The record followed here is BindingDB's records for doi:10.1021/jm960093o (Agouron Pharmaceuticals, 1996).

A value given as a limit tells only on which side of the number the result lay.

The assay addresses T1, Dimer of Gag-Pol polyprotein [489-587] (Human immunodeficiency virus 1, UniProt P12497).
T1 construct: 489-587
The assay can be described thus: Protease Inhibition Assay. As to conditions: pH 5.6; 37 °C. The protocol:
Protease activity was measured by continuous chromogenic assay. The chromogenic peptide His-Lys-Ala-Arg-Val-Leu- (p-NO2-Phe)-Glu-Ala-Nleu-Ser (Bachem) was used as a substrate. Reactions were followed by the decrease of absorbance at 300 nm measured by spectrophotometer. Experimental results were analyzed by the nonlinear regression analysis, using a mathematical model for tight binding inhibitors.
As to `CC(C)(C)NC(=O)c1ccccc1SCC(O)c1ccccc1C(=O)NC(C)(C)C` (centres undefined) [N-tert-butyl-2-({2-[2-(tert-butylcarbamoyl)phenyl]-2-hydroxyethyl}sulfanyl)benzamide], the IC50 was more than 200 µM. In turn, `CC(C)(C)NC(=O)c1ccccc1CC(O)CSc1ccccc1NC(=O)C(C)(C)C` (centres undefined) [N-tert-butyl-2-(3-{[2-(2,2-dimethylpropanamido)phenyl]sulfanyl}-2-hydroxypropyl)benzamide] showed an IC50 of more than 200 µM. Next, `CC(C)N1CCC(CC(O)CCc2ccc3ccccc3c2C(=O)NC(C)(C)C)=C(C(=O)NC(C)(C)C)C1` (centres undefined) [N-tert-butyl-4-{4-[1-(tert-butylcarbamoyl)naphthalen-2-yl]-2-hydroxybutyl}-1-(propan-2-yl)-1,2,5,6-tetrahydropyridine-3-carboxamide]: 70 µM; `CC(C)(C)NC(=O)c1ccccc1NCC(O)Cc1ccc2ccccc2c1C(=O)NC(C)(C)C` (centres undefined) [N-tert-butyl-2-(3-{[2-(tert-butylcarbamoyl)phenyl]amino}-2-hydroxypropyl)naphthalene-1-carboxamide]: 120 µM.

By IC50 is commonly meant the concentration that gives 50% inhibition. Read a high IC50 as weaker potency.
